Experimental data as given in publication PMC2874416 (Beilstein Journal of Organic Chemistry, 2010).
Like-named read-outs stand apart in the source and are kept apart here.

What was measured:
β-galactosidase = test system: β-galactosidase; set-up: method as in PMID 19812739; details: GM1-gangliosidosis model mice, orally administered; cited from earlier work
α-galactosidase A = test system: α-galactosidase A; set-up: method as in PMID 17894781, PMID 18381081, PMID 19387866, PMID 19287194; details: cultured Fabry patient cell lines, incubation for five days, 49 missense mutant forms; cited from earlier work
[1] = test system: tissue globotriaosylceramide levels; set-up: method as in PMID 19773742; details: mouse model; cited from earlier work
[2] = target: T1, Agrobacterium sp. β-glucosidase/galactosidase (Agrobacterium sp., UniProt P12614); experiment: Inhibition of Agrobacterium sp. β-glucosidase/galactosidase (Abg), Ki by kinetic studies; assay type: biochemical
T1 construct: made in house
T1 sequence (P12614 1-459): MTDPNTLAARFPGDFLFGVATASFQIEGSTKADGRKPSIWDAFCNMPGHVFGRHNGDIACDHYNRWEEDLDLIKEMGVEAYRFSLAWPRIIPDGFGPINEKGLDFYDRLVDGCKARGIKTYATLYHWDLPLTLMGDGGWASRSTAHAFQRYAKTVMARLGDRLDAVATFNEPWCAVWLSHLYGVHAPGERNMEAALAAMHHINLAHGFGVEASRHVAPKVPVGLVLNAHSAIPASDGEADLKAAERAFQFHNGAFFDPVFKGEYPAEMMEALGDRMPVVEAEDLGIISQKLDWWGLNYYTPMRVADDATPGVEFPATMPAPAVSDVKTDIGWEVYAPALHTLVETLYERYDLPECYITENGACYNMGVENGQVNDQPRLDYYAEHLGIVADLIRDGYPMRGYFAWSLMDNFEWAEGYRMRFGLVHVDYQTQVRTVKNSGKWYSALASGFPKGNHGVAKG
Description: glycosidase was purified and assayed as described. Kinetic studies were performed at 37 °C in pH 7.0 sodium phosphate buffer (50 mM) containing 0.1 % bovine serum albumin, using 7.2 x 10-5 mg/mL enzyme. Approximate values of Ki were determined using a fixed concentration of substrate, 4-nitrophenyl β-D- […]
times to 5 times the Ki value ultimately determined. A horizontal line drawn through […]
an inhibitor concentration equal to -Ki. Full Ki determinations where required, were performed using the same range of inhibitor concentrations while also varying substrate (4-nitrophenyl glucoside) concentrations from approximately 0.015 mM to 0.6 mM. Data were analysed by direct fit to the Michaelis Menten equation describing reaction in the presence of inhibitors using the program GraFit. […]

[3] = test system: β-galactosidase mutant feline fibroblast cell line; experiment: Chemical chaperone activity in β-galactosidase mutant feline fibroblast cell line; assay type: cell-based; details: preliminary; for increase of enzyme activity of β-galactosidase mutant: concentration 100 µM
E. coli β-galactosidase = target: T2, E. coli β-galactosidase (Escherichia coli, UniProt P00722); experiment: Inhibition of E. coli β-galactosidase, Ki by kinetic studies; assay type: biochemical
T2 construct: purchased Sigma Chemicals
T2 sequence (P00722 2-1024 limits assumed): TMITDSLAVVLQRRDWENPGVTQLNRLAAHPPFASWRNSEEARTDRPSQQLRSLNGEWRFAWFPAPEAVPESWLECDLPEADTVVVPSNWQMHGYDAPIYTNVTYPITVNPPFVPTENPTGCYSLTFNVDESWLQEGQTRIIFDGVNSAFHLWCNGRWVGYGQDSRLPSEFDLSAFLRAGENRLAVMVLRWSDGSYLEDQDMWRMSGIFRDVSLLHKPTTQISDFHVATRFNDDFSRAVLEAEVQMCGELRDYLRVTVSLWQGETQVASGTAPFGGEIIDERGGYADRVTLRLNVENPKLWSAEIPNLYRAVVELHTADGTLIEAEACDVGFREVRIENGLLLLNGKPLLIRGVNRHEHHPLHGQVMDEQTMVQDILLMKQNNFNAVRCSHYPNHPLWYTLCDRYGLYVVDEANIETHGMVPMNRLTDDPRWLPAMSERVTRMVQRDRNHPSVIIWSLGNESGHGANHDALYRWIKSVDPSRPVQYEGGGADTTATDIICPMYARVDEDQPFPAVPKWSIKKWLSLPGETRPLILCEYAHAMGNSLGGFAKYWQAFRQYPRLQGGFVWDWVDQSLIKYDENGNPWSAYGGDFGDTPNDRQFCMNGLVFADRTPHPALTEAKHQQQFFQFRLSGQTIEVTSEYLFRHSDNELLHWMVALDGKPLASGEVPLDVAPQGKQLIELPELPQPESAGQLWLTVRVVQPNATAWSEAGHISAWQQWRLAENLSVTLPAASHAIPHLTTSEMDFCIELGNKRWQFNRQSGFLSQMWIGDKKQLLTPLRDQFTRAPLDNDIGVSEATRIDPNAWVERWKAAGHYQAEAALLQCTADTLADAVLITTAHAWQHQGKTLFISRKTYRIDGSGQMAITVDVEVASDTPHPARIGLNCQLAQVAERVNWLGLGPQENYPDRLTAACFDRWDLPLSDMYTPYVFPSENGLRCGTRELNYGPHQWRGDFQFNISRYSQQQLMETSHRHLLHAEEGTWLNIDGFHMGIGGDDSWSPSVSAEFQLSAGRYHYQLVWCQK
Description: E. coli β-galactosidase was purchased from Sigma Chemicals. Kinetic studies were performed at 37°C in 100 mM sodium phosphate buffer, pH 7.0 containing 0.1% serum albumin. Rates of reaction were determined as a function of both varying substrate and inhibitor concentration over the concentration ranges indicated below.
Data obtained were analysed using a nonlinear regression analysis program GraFit, p-nitrogalactopyranoside (Km = 0.03 mM), 0.045 – 0.3 mM). […]

[4] = target: T3, green coffee bean α-galactosidase (Coffea arabica, UniProt Q42656); experiment: Inhibition of green coffee bean α-galactosidase, Ki by kinetic studies; assay type: biochemical; details: 37 °C, pH 6.5, substrate PNP-Gal; read-out: Ki α-gal GCB
T3 construct: made in house
T3 sequence (Q42656 16-378): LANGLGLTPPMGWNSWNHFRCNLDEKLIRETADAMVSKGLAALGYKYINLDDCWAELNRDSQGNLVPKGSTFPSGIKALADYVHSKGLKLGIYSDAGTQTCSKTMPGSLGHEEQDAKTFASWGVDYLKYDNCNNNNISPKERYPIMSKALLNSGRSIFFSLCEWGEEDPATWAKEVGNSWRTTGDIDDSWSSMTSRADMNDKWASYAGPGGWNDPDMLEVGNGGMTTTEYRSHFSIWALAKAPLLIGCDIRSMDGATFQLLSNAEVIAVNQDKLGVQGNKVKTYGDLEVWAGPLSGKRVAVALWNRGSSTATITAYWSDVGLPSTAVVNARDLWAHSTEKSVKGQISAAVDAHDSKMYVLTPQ
Description: Green coffee bean α-galactosidase was purified and assayed as described.
Kinetic studies were performed at 37°C in 50 mM sodium phosphate buffer, pH 6.5 containing 0.1% serum albumin. Reactions were initiated by the addition of enzyme (final concentration = 0.3 µg/mL), bringing the total volume to 200µL. Reaction rates were measured by monitoring the release of p-nitrophenolate (λ = 400 nm, ε = […]) from PNP-Gal by means of a UNICAM 8700 UV-Vis spectrophotometer equipped with a circulating water bath. Inhibition studies were performed by varying […]
concentrations of both PNP-Gal and inhibitor. Ki values were calculated by direct fit of the initial rates to the equation below using Grafit. […]

[5] = target: T4, human lysosomal β-galactosidase (Homo sapiens, UniProt P16278); experiment: Inhibition of human lysosomal β-galactosidase; assay type: biochemical
T4 sequence (P16278 29-677): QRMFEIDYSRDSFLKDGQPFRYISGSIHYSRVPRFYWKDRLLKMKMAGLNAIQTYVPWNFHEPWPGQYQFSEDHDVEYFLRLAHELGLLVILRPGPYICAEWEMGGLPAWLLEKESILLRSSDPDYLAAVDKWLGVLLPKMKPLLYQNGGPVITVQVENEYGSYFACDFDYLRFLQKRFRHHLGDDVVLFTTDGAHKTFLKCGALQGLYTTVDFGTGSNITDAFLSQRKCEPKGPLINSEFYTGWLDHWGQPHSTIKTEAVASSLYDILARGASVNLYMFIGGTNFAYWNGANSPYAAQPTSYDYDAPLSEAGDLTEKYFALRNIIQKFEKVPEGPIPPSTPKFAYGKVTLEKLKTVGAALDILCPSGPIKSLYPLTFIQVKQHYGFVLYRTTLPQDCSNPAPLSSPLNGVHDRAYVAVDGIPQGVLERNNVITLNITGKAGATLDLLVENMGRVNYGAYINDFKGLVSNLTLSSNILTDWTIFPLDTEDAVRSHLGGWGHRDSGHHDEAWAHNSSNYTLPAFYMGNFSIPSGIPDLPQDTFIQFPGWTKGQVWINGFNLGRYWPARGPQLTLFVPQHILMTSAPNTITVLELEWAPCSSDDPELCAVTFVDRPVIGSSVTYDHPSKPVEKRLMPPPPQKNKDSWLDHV

[6] = 37 °C, pH 7.0, read-out: Ki β-gal E. coli

| Compound | Ki [2] [µM] | Ki (E. coli β-galactosidase; [6]) [µM] | Ki [4] [µM] | further results |
| --- | --- | --- | --- | --- |
| CCCCCCCCN[C@@H]1C=C(CO)[C@H](O)[C@H](O)[C@H]1O [N-octyl-4-epi-β-valienamine] |  |  |  | β-galactosidase activity in brain after oral administration (β-galactosidase): enhancing β-galactosidase activity |
| OC[C@H]1NC[C@H](O)[C@@H](O)[C@H]1O [Compound 4, 1-Deoxygalactonojirimycin] |  |  |  | increase of α-galactosidase A levels (α-galactosidase A): 1.5 to 28 fold; tissue globotriaosylceramide levels [1]: reduce tissue globotriaosylceramide levels |
| CN(C)c1ccc(C(=O)NCCCCCCN2C[C@H](O)[C@@H](O)[C@@H](O)[C@H]2CO)cc1 [Compound 18] | 3.8 | 1.1 | 0.49 | increase of relative enzyme activity of β-galactosidase mutant ([3]; concentration 2 µM): 4.8 fold |
| O=C(NCCCCCCN1C[C@H](O)[C@@H](O)[C@@H](O)[C@H]1CO)c1cccnc1 [Compound 17] | 1.5 | 0.83 | 2.2 | increase of enzyme activity of β-galactosidase mutant [3]: up to 5.5 fold |
| CC(C)(C)OC(=O)NCCCCCCN1C[C@H](O)[C@@H](O)[C@@H](O)[C@H]1CO [Compound 20] |  | 2.4 | 4.3 | Ki ([2]; read-out: Ki β-glu/gal Abg, 37 °C, pH 7.0, substrate 4-nitrophenyl β-D-glucopyranoside): 3 µM; IC50 [5]: 10.9 µM; Ki [5]: 2 µM |
| O=C(CCCc1ccc2ccc3cccc4ccc1c2c34)NCCCCCCN1C[C@H](O)[C@@H](O)[C@@H](O)C1CO (stereo partly shown) [Compound 19] | 0.06 |  | 7 | Ki (E. coli β-galactosidase): 0.25 µM |
| O=C(NCCCCCCN1C[C@H](O)[C@@H](O)[C@@H](O)[C@H]1CO)OCc1ccccc1 [Compound 22] | 6 | 0.4 | 2.2 | IC50 [5]: 3.26 µM; Ki [5]: 0.72 µM; increase of enzyme activity of β-galactosidase mutant [3]: up to 5.5 fold |
| CC(C)c1ccc(C(=O)NCCCCCCN2C[C@H](O)[C@@H](O)[C@@H](O)[C@H]2CO)cc1 [Compound 16] | 13 |  | 2.6 | Ki (E. coli β-galactosidase): 1.3 µM |
